The values that follow come from patent publication EP0094833A2, “Novel 1,2-benzisoxazole derivatives” (Dainippon Pharmaceutical Co., Ltd., priority 1982, dated 1983).

≈ marks a conversion by molar mass, not a printed value. Structures can show the parent of a compound that is named as a salt. Where two headings read alike, the source gives them in different places.

One test concerns ileum. The test can be described thus: Inhibitory effect on contractile response induced by acetylcholine (Anti-ACh), isolated ileum. Format: cell-based, guinea pig. The note with it: Cavia porcellus, read-out: Anti-ACh (IC50 : g/ml).
For the next test, the system named is guinea pig taenia-coli. The test can be described thus: Inhibitory effect on contractile response induced by potassium chloride (Anti-KCl), isolated taenia-coli. The class given is cell-based. The note with it: Cavia porcellus, read-out: IC50 (g/ml) Anti-KCl. The protocol:
Experiment 2 Inhibitory effect on contractile response induced by potassium chloride (Anti-KC1) In the same manner as described in the above Experiment 1, isolated guinea pig taenia-coli about 3 cm in length was prepared, and mounted in Tyrode's solution. The contractile response was measured with an isometric transducer and recorded on recticorder. Each preparation was adjusted to a tension of .lg and allowed to equilibrate for 30 minutes before measuring the effects of the test compounds. Test compounds were applied to 5 minutes before adding potassium chloride (40 mM). Each Compound was tested in 2 - 3 concentrations.

Test [1] has as its system spontaneous gastric motility. The experiment in a line: Inhibitory effect on spontaneous gastric motility (Anti-SGM) in conscious rabbits. Format: in vivo, male Albino strain rabbits. The note with it: Rabbit, 100 mg/kg po, maximum percent inhibition of initial spontaneous motility. Here is the method: (§1) Experiment 3 Inhibitory effect on spontaneous gastric motility (Anti-SGM)
(§2) This effect was examined using male Wistar strain rats or male Albino strain rabbits, with chronically implanted strain gauge force transducer. The rats or rabbits were allowed to stand for 3 - 5 days for recovery from the surgery and fasted for 18 hours before experiment. Then, spontaneous gastric motility in conscious rats or rabbits was recorded and the sum of amplitude of each contraction was calculated every 15 minutes. Inhibitory effect of test compound by oral administration was expressed as a maximum percent inhibition of initial spontaneous motility.

Test [2] has as its system spontaneous gastric motility. The test can be described thus: Inhibitory effect on spontaneous gastric motility (Anti-SGM) in conscious rats. The note with it: Rat, maximum percent inhibition of initial spontaneous motility. The class given is in vivo, male Wistar strain rats. Here is the method:
as §1, §2

[3] abbreviates: guinea pig ileum, acetylcholine 2 X 10^-8 g/ml, test compound applied 2 minutes before.
The mark [4] stands for this setting: guinea pig taenia-coli, potassium chloride 40 mM, test compound applied 5 minutes before.

On to `CC[N+](C)(CC)CCOC(=O)C(c1noc2ccccc12)C1CCCCC1` (racemic) [Example 34], for which, in the test on ileum (setting [3]), the IC50 worked out at 0.026 mg/L.
As for `C[N+]1(C)CCC(OC(=O)C(c2noc3ccc(Cl)cc23)C2CCCCC2)CC1` (racemic) [Example 35], in the test with ileum (setting [3]), the IC50 was determined as 0.057 mg/L.
Take `Br.CCN(CC)CCCOC(=O)C(c1noc2ccccc12)C1CCCCC1` (stereo not drawn) [Example 1, 3-Diethylaminopropyl α-cyclohexyl-1,2-benzisoxazole-3-acetate hydrobromide]: the IC50 in the test with guinea pig taenia-coli (setting [4]) is 0.85 mg/L; in the test on ileum (setting [3]), 0.16 mg/L. Moreover, the “Inhibition (%)” value in test [1] is 52%; in test [2] (100 mg/kg po) it was 36%; in test [2] (200 mg/kg po) it was 49%.
As to `CN1CCC(OC(=O)C(c2noc3ccc(Cl)cc23)C2CCCCC2)CC1.O=C(O)C(=O)O` (stereo not drawn) [Example 2, 1-Methyl-4-piperidyl α-cyclohexyl-5-chloro-1,2-benzisoxazole-3-acetate oxalate], the IC50 with guinea pig taenia-coli (setting [4]) was 3.2 mg/L; in the test with ileum (setting [3]) it was 0.34 mg/L.
In the same order, the values of `CCN(CC)CCOC(=O)C(c1noc2ccccc12)C1CCCCC1` (stereo not shown) [Example 3] are 1 mg/L (≈ 2.79 µM) and 0.12 mg/L (≈ 0.335 µM).
In the same order, the values of `CCN(CC)CC(C)OC(=O)C(c1noc2ccccc12)C1CCCCC1` (stereo not shown) [Example 4] are 1.6 mg/L (≈ 4.3 µM) and 0.42 mg/L (≈ 1.13 µM).
Consider `CN1CCC(OC(=O)C(c2noc3ccccc23)C2CCCCC2)CC1` (stereo not shown) [Example 5], for which the IC50 in the test on ileum (setting [3]) was 0.037 mg/L (≈ 0.104 µM).
For `CCN(CC)CCCC(C)OC(=O)C(c1noc2ccccc12)C1CCCCC1` (stereo not shown) [Example 7], the IC50 in the test with ileum (setting [3]) is 0.69 mg/L (≈ 1.72 µM).
Take `CCN(CC)CCCCOC(=O)C(c1noc2ccccc12)C1CCCCC1` (stereo not shown) [Example 8]: the IC50 in the test on ileum (setting [3]) was 0.48 mg/L (≈ 1.24 µM).
In the case of `O=C(OCCN1CCCCC1)C(c1noc2ccccc12)C1CCCCC1` (stereo not shown) [Example 9], the IC50 was found to be 2.7 mg/L (≈ 7.29 µM) with guinea pig taenia-coli (setting [4]) and 0.41 mg/L (≈ 1.11 µM) in the test with ileum (setting [3]).
In the same order, the values of `CCN(CC)CCOC(=O)C(c1noc2ccc(Cl)cc12)C1CCCCC1` (stereo not shown) [Example 10] are 3.3 mg/L (≈ 8.4 µM) and 0.87 mg/L (≈ 2.21 µM).
As for `CN1CCC(OC(=O)C(Cc2ccccc2)(Cc2ccccc2)c2noc3ccccc23)CC1` [Example 28], the IC50 with guinea pig taenia-coli (setting [4]) came out at 0.56 mg/L (≈ 1.23 µM); in the test with ileum (setting [3]) it was 0.65 mg/L (≈ 1.43 µM).
For `O=C(OCCN1CCCC1)C(Cc1ccccc1)(Cc1ccccc1)c1noc2ccccc12` [Example 29], the IC50 in the test with ileum (setting [3]) turned out to be 0.96 mg/L (≈ 2.11 µM).
On the same count and under the same terms, under `CC[N+]1(C)CCC(OC(=O)C(c2noc3ccccc23)C2CCCCC2)CC1.[Br-]` (stereo not shown) [Example 31, 1-Ethyl-1-methyl-4-[2-(1,2-benzisoxazol-3-yl)-2-cyclohexylacetoxy]piperidinium bromide] stands 0.014 mg/L; under `CC[N+](C)(CC)CCCOC(=O)C(c1noc2ccccc12)C1CCCCC1` (stereo not shown) [Example 32], 0.21 mg/L.
The same measure, in the same setting: the same measure for `C[N+]1(C)CCC(OC(=O)C(c2noc3ccccc23)C2CCCCC2)CC1` (stereo not shown) [Example 33]: 0.013 mg/L.
Take `COc1ccc(Cc2nccc3cc(OC)c(OC)cc23)cc1OC` [Papaverine hydrochloride, reference compound]: the IC50 with guinea pig taenia-coli amounted to 1.3 mg/L; with ileum, 13 mg/L.
As for `CCN(CC)CC(C)OC(=O)C1CCCCC1(O)C1CCCCC1` (stereo not shown) [Rociverine, reference compound], the IC50 with guinea pig taenia-coli (setting [4]) came out at 5.4 mg/L (≈ 15.9 µM); in the test on ileum (setting [3]), 1.1 mg/L (≈ 3.24 µM).
Turning to `CCCC[N+]1(C)C2CC(OC(=O)C(CO)c3ccccc3)CC1C1OC12` (stereo not shown) [Scopolamine-N-butyl bromide, reference compound], in the test on ileum (setting [3]), the IC50 amounted to 0.089 mg/L.
